According to ChEMBL document CHEMBL4732126, “Design, synthesis, and biodistribution studies of new analogues of marine alkaloids: Potent in vitro and in vivo fungicidal agents against Candida spp” (Eur J Med Chem, 2021):
Converted amounts (≈) assume the structure as drawn. The source made the active and inactive calls. No cut-off for these calls is given here.

Tests used:
[1] = Toxicity in iv dosed mouse measured for 24 hrs; format: organism-based; conditions: in vivo
[2] = Toxicity in po dosed mouse measured for 24 hrs; format: organism-based; conditions: in vivo
Candida albicans [3] = experiment: Fungicidal activity against Candida albicans isolate 1 assessed as fungal killing incubated for 48 hrs followed by plating on SD agar plate; format: functional; conditions: read-out: MFC99.9
Candida albicans [4] = experiment: In vivo antifungal activity in Swiss mouse infected with Candida albicans ATCC 10231 assessed as reduction in fungal load in spleen at 10 mg/kg, ip administered at 2, 24 and 48 hrs post-infection and measured per gm of organ at 24 hrs post-last dose (reference value: 2.34); format: functional, organism-based; conditions: time 72.0 hrs
[5] = Toxicity in Swiss mouse assessed as relative kidney weight at 1 mg/kg, ip measured after 24 hrs (reference value: 14.91 +/- 0.99 g); format: organism-based; conditions: in vivo
Candida albicans [6] = experiment: Fungicidal activity against Candida albicans isolate 5 assessed as fungal killing incubated for 48 hrs followed by plating on SD agar plate; format: functional; conditions: read-out: MFC99.9
Candida albicans [7] = experiment: Antifungal activity against Candida albicans isolate 5 assessed as reduction in fungal growth incubated for 48 hrs by broth microdilution method; format: functional
Candida albicans [8] = experiment: In vivo antifungal activity in Swiss mouse infected with Candida albicans ATCC 10231 assessed as reduction in fungal load in liver at 10 mg/kg, ip administered at 2, 24 and 48 hrs post-infection and measured per gm of organ at 24 hrs post-last dose (reference value: 1.80); format: functional; conditions: time 72 hrs
Candida albicans [9] = experiment: Antifungal activity against Candida albicans isolate 1 assessed as reduction in fungal growth incubated for 48 hrs by broth microdilution method; format: functional
[10] = Toxicity in Swiss mouse assessed as relative heart weight at 1 mg/kg, ip measured after 24 hrs (reference value: 4.75 +/- 0.60 g); format: organism-based; conditions: in vivo
Candida albicans [11] = experiment: Fungicidal activity against Candida albicans isolate 2 assessed as fungal killing incubated for 48 hrs followed by plating on SD agar plate; format: functional; conditions: read-out: MFC99.9
Candida albicans [12] = experiment: Antifungal activity against Candida albicans isolate 4 assessed as reduction in fungal growth incubated for 48 hrs by broth microdilution method; format: functional
Candida albicans [13] = experiment: Fungicidal activity against Candida albicans isolate 3 assessed as fungal killing incubated for 48 hrs followed by plating on SD agar plate; format: functional; conditions: read-out: MFC99.9
Candida albicans [14] = experiment: Fungicidal activity against Candida albicans isolate 4 assessed as fungal killing incubated for 48 hrs followed by plating on SD agar plate; format: functional; conditions: read-out: MFC99.9
[15] = Toxicity in Swiss mouse assessed as relative spleen weight at 1 mg/kg, ip measured after 24 hrs (reference value: 4.02 +/- 0.59 g); format: organism-based; conditions: in vivo
[16] = Toxicity in Swiss mouse assessed as body weight at 1 mg/kg, ip measured after 24 hrs (reference value: 36.25 +/- 0.31 g); format: organism-based; conditions: in vivo
Candida albicans [17] = experiment: In vivo antifungal activity in Swiss mouse infected with Candida albicans ATCC 10231 assessed as reduction in fungal load in liver at 1 mg/kg, ip administered at 2, 24 and 48 hrs post-infection and measured per gm of organ at 24 hrs post-last dose (reference value: 1.80); format: functional; conditions: time 72.0 hrs
Candida albicans [18] = experiment: In vivo antifungal activity in Swiss mouse infected with Candida albicans ATCC 10231 assessed as reduction in fungal load in kidney at 1 mg/kg, ip administered at 2, 24 and 48 hrs post-infection and measured per gm of organ at 24 hrs post-last dose (reference value: 2.47); format: functional; conditions: time 72.0 hrs
Candida albicans [19] = experiment: In vivo antifungal activity in Swiss mouse infected with Candida albicans ATCC 10231 assessed as reduction in fungal load in spleen at 1 mg/kg, ip administered at 2, 24 and 48 hrs post-infection and measured per gm of organ at 24 hrs post-last dose (reference value: 2.34); format: functional; conditions: time 72.0 hrs
Candida albicans [20] = experiment: Antifungal activity against Candida albicans isolate 3 assessed as reduction in fungal growth incubated for 48 hrs by broth microdilution method; format: functional
Candida albicans [21] = experiment: Antifungal activity against Candida albicans isolate 2 assessed as reduction in fungal growth incubated for 48 hrs by broth microdilution method; format: functional
Candida albicans [22] = experiment: In vivo antifungal activity in Swiss mouse infected with Candida albicans ATCC 10231 assessed as reduction in fungal load in kidney at 10 mg/kg, ip administered at 2, 24 and 48 hrs post-infection and measured per gm of organ at 24 hrs post-last dose (reference value: 2.47); format: functional, organism-based; conditions: time 72.0 hrs
[23] = Toxicity in Swiss mouse assessed as relative liver weight at 1 mg/kg, ip measured after 24 hrs (reference value: 49.42 +/- 7.17 g); format: organism-based; conditions: in vivo
[24] = Toxicity in Swiss mouse assessed as relative lung weight at 1 mg/kg, ip measured after 24 hrs (reference value: 6.35 +/- 0.68 g); format: organism-based; conditions: in vivo
Candida albicans [25] = experiment: Fungicidal activity against Candida albicans ATCC 10231 assessed as reduction in fungal load at 1 ug/ml incubated for 8 hrs followed by inoculation on SD agar plate for 48 hrs by time-kill assay; format: functional, organism-based; conditions: dose 1.0 µg/ml, time 56.0 hrs

Question: Which results are given for `COc1cc2c(cc1OC)[C@@H]1N(C)Cc3c(cc(OC)c4c3OCO4)[C@]1(C)[C@H](O)C2`?
Answer: LD50 at 24 h [1]: 41.6 mg/kg; LD50 at 24 h [2]: 800 mg/kg

Question: With `C[C@@H]1[C@H](O)[C@@H](C)/C=C/C=C/C=C/C=C/C=C/C=C/C=C/[C@H](O[C@@H]2O[C@H](C)[C@@H](O)[C@H](N)[C@@H]2O)C[C@@H]2O[C@](O)(C[C@@H](O)C[C@@H](O)[C@H](O)CC[C@@H](O)C[C@@H](O)CC(=O)O[C@H]1C)C[C@H](O)[C@H]2C(=O)O` [AMPHOTERICIN B] as the compound, how does the MFC (Candida albicans [3]) read?
Answer: 78.1 µg/mL (≈ 84.5 µM)

Question: And the Activity (Candida albicans [4])?
Answer: Active

Question: And the Activity [5]?
Answer: 15.56 g

Question: What about the MFC (Candida albicans [6]) of the same compound?
Answer: 78.1 µg/mL (≈ 84.5 µM)

Question: And the MIC (Candida albicans [7])?
Answer: 39 µg/mL (≈ 42.2 µM)

Question: And the Activity (Candida albicans [8])?
Answer: 1.51 log10CFU

Question: What about the MIC (Candida albicans [9]) of the same compound?
Answer: 39 µg/mL (≈ 42.2 µM)

Question: And the Activity [10]?
Answer: 5.94 g

Question: And the MFC (Candida albicans [11])?
Answer: 312 µg/mL (≈ 338 µM)

Question: And the MIC (Candida albicans [12])?
Answer: 156 µg/mL (≈ 169 µM)

Question: What about the MFC (Candida albicans [13]) of the same compound?
Answer: 39 µg/mL (≈ 42.2 µM)

Question: What about the MFC (Candida albicans [14]) of the same compound?
Answer: 625 µg/mL (≈ 676 µM)

Question: And the Activity [15]?
Answer: 4.14 g

Question: And the Activity [16]?
Answer: 31.12 g

Question: What about the Activity (Candida albicans [17]) of the same compound?
Answer: Active

Question: And the Activity (Candida albicans [18])?
Answer: Active

Question: What about the Activity (Candida albicans [19]) of the same compound?
Answer: Active

Question: And the MIC (Candida albicans [20])?
Answer: 39 µg/mL (≈ 42.2 µM)

Question: What about the MIC (Candida albicans [21]) of the same compound?
Answer: 39 µg/mL (≈ 42.2 µM)

Question: And the Activity (Candida albicans [22])?
Answer: Active

Question: And the Activity [23]?
Answer: 49.34 g

Question: And the Activity [24]?
Answer: 6.51 g

Question: And the Activity (Candida albicans [25])?
Answer: Active
